Experimental data as given in ChEMBL document CHEMBL1150788, “In vitro susceptibility of Sporothrix schenckii to six antifungal agents determined using three different methods” (2007).
Converted amounts (≈) assume the structure as drawn.

What was measured:
Assay type in all cases: functional
[1] = system: Sporothrix schenckii; test: Antifungal activity against Sporothrix schenckii P24255 isolate from cutaneous-lymphatic sporotrichosis patient after 72 hrs by modified NCCLS M38-A method
[2] = system: Candida parapsilosis; test: Antifungal activity against Candida parapsilosis ATCC 22019 […] after 72 hrs by modified NCCLS M38-A method; conditions: Lodderomyces parapsilosis, ATCC 22019, 72 h
[3] = system: Sporothrix schenckii; test: Antifungal activity against Sporothrix schenckii P26187 isolate from cutaneous-lymphatic sporotrichosis patient after 72 hrs by Sensititre YeastOne method
[4] = system: Sporothrix schenckii; test: Antifungal activity against Sporothrix schenckii P24255 isolate from cutaneous-lymphatic sporotrichosis patient after 72 hrs by Sensititre YeastOne method
[5] = system: Sporothrix schenckii; test: Antifungal activity against Sporothrix schenckii P26187 isolate from cutaneous-lymphatic sporotrichosis patient after 72 hrs by modified NCCLS M38-A method
[6] = system: Sporothrix schenckii; test: Antifungal activity against Sporothrix schenckii PSSA81 isolate from cutaneous-lymphatic sporotrichosis patient after 72 hrs by Sensititre YeastOne method
[7] = system: Sporothrix schenckii; test: Antifungal activity against Sporothrix schenckii P14036 isolate from cutaneous-lymphatic sporotrichosis patient after 72 hrs by modified NCCLS M38-A method
[8] = system: Sporothrix schenckii; test: Antifungal activity against Sporothrix schenckii P20825 isolate from cutaneous-lymphatic sporotrichosis patient after 72 hrs by Sensititre YeastOne method
[9] = system: Sporothrix schenckii; test: Antifungal activity against Sporothrix schenckii P30019 isolate from cutaneous-lymphatic sporotrichosis patient after 72 hrs by modified NCCLS M38-A method
[10] = system: Sporothrix schenckii; test: Antifungal activity against Sporothrix schenckii PGAC0016 isolate from cutaneous-lymphatic sporotrichosis patient after 72 hrs by modified NCCLS M38-A method
[11] = system: Aspergillus flavus; test: Antifungal activity against Aspergillus flavus ATCC 204304 […] after 72 hrs by modified NCCLS M38-A method; conditions: ATCC 204304, 72 h
[12] = system: Sporothrix schenckii; test: Antifungal activity against Sporothrix schenckii PSCC1 isolate from cutaneous-lymphatic sporotrichosis patient after 72 hrs by modified NCCLS M38-A method
[13] = system: Sporothrix schenckii; test: Antifungal activity against Sporothrix schenckii P14954 isolate from cutaneous-lymphatic sporotrichosis patient after 72 hrs by modified NCCLS M38-A method
[14] = system: Sporothrix schenckii; test: Antifungal activity against Sporothrix schenckii P0019 isolate from cutaneous-lymphatic sporotrichosis patient after 72 hrs by modified NCCLS M38-A method
[15] = system: Sporothrix schenckii; test: Antifungal activity against Sporothrix schenckii PGAC0016 isolate from cutaneous-lymphatic sporotrichosis patient after 72 hrs by Sensititre YeastOne method
[16] = system: Pichia kudriavzevii; test: Antifungal activity against Candida krusei ATCC 6258 […] after 72 hrs by modified NCCLS M38-A method; conditions: ATCC 6258, 72 h
[17] = system: Sporothrix schenckii; test: Antifungal activity against Sporothrix schenckii P3287 isolate from cutaneous-lymphatic sporotrichosis patient after 72 hrs by Sensititre YeastOne method
[18] = system: Candida parapsilosis; test: Antifungal activity against Candida parapsilosis ATCC 22019 […] after 72 hrs by Sensititre YeastOne method; conditions: Lodderomyces parapsilosis, ATCC 22019, 72 h
[19] = system: Sporothrix schenckii; test: Antifungal activity against Sporothrix schenckii P10012 isolate from cutaneous-lymphatic sporotrichosis patient after 72 hrs by Sensititre YeastOne method
[20] = system: Sporothrix schenckii; test: Antifungal activity against Sporothrix schenckii SSA29 isolate from cutaneous-lymphatic sporotrichosis patient after 72 hrs by Sensititre YeastOne method
[21] = system: Sporothrix schenckii; test: Antifungal activity against Sporothrix schenckii P20825 isolate from cutaneous-lymphatic sporotrichosis patient after 72 hrs by modified NCCLS M38-A method
[22] = system: Sporothrix schenckii; test: Antifungal activity against Sporothrix schenckii P3287 isolate from cutaneous-lymphatic sporotrichosis patient after 72 hrs by modified NCCLS M38-A method
[23] = system: Sporothrix schenckii; test: Antifungal activity against Sporothrix schenckii P25013 isolate from cutaneous-lymphatic sporotrichosis patient after 72 hrs by modified NCCLS M38-A method
[24] = system: Sporothrix schenckii; test: Antifungal activity against Sporothrix schenckii MRSS4 isolate from cutaneous-lymphatic sporotrichosis patient after 72 hrs by Sensititre YeastOne method
[25] = system: Sporothrix schenckii; test: Antifungal activity against Sporothrix schenckii P1621 isolate from cutaneous-lymphatic sporotrichosis patient after 72 hrs by modified NCCLS M38-A method
[26] = system: Sporothrix schenckii; test: Antifungal activity against Sporothrix schenckii P25013 isolate from cutaneous-lymphatic sporotrichosis patient after 72 hrs by Sensititre YeastOne method
[27] = system: Sporothrix schenckii; test: Antifungal activity against Sporothrix schenckii P1621 isolate from cutaneous-lymphatic sporotrichosis patient after 72 hrs by Sensititre YeastOne method
[28] = system: Sporothrix schenckii; test: Antifungal activity against Sporothrix schenckii P0019 isolate from cutaneous-lymphatic sporotrichosis patient after 72 hrs by Sensititre YeastOne method
[29] = system: Sporothrix schenckii; test: Antifungal activity against Sporothrix schenckii P10012 isolate from cutaneous-lymphatic sporotrichosis patient after 72 hrs by modified NCCLS M38-A method
[30] = system: Aspergillus flavus; test: Antifungal activity against Aspergillus flavus ATCC 204304 […] after 72 hrs by Sensititre YeastOne method; conditions: ATCC 204304, 72 h
[31] = system: Sporothrix schenckii; test: Antifungal activity against Sporothrix schenckii PSCC1 isolate from cutaneous-lymphatic sporotrichosis patient after 72 hrs by Sensititre YeastOne method
[32] = system: Sporothrix schenckii; test: Antifungal activity against Sporothrix schenckii MRSS4 isolate from cutaneous-lymphatic sporotrichosis patient after 72 hrs by modified NCCLS M38-A method
[33] = system: Sporothrix schenckii; test: Antifungal activity against Sporothrix schenckii P14954 isolate from cutaneous-lymphatic sporotrichosis patient after 72 hrs by Sensititre YeastOne method
[34] = system: Sporothrix schenckii; test: Antifungal activity against Sporothrix schenckii P14036 isolate from cutaneous-lymphatic sporotrichosis patient after 72 hrs by Sensititre YeastOne method
[35] = system: Sporothrix schenckii; test: Antifungal activity against Sporothrix schenckii PSSA81 isolate from cutaneous-lymphatic sporotrichosis patient after 72 hrs by modified NCCLS M38-A method
[36] = system: Sporothrix schenckii; test: Antifungal activity against Sporothrix schenckii PJRC002 isolate from cutaneous-lymphatic sporotrichosis patient after 72 hrs by Sensititre YeastOne method
[37] = system: Sporothrix schenckii; test: Antifungal activity against Sporothrix schenckii PJRC002 isolate from cutaneous-lymphatic sporotrichosis patient after 72 hrs by modified NCCLS M38-A method
[38] = system: Sporothrix schenckii; test: Antifungal activity against Sporothrix schenckii P24223 isolate from cutaneous-lymphatic sporotrichosis patient after 72 hrs by modified NCCLS M38-A method
[39] = system: Sporothrix schenckii; test: Antifungal activity against Sporothrix schenckii P30915 isolate from cutaneous-lymphatic sporotrichosis patient after 72 hrs by Sensititre YeastOne method
[40] = system: Sporothrix schenckii; test: Antifungal activity against Sporothrix schenckii P30915 isolate from cutaneous-lymphatic sporotrichosis patient after 72 hrs by modified NCCLS M38-A method
[41] = system: Sporothrix schenckii; test: Antifungal activity against Sporothrix schenckii P30019 isolate from cutaneous-lymphatic sporotrichosis patient after 72 hrs by Sensititre YeastOne method
[42] = system: Pichia kudriavzevii; test: Antifungal activity against Candida krusei ATCC 6258 […] after 72 hrs by Sensititre YeastOne method; conditions: ATCC 6258, 72 h
[43] = system: Sporothrix schenckii; test: Antifungal activity against Sporothrix schenckii P24223 isolate from cutaneous-lymphatic sporotrichosis patient after 72 hrs by Sensititre YeastOne method
[44] = system: Sporothrix schenckii; test: Antifungal activity against Sporothrix schenckii isolate from cutaneous-lymphatic sporotrichosis patient after 72 hrs by Sensititre YeastOne method
[45] = system: Sporothrix schenckii; test: Antifungal activity against Sporothrix schenckii isolate from cutaneous-lymphatic sporotrichosis patient after 72 hrs by modified NCCLS M38-A method
[46] = system: Sporothrix schenckii; test: Antifungal activity against Sporothrix schenckii SSA29 isolate from cutaneous-lymphatic sporotrichosis patient after 72 hrs by modified NCCLS M38-A method

Structure (SMILES): C[C@@H](c1ncncc1F)[C@](O)(Cn1cncn1)c1ccc(F)cc1F [VORICONAZOLE]
- MIC [1]: 8 µg/mL (≈ 22.9 µM)
- MIC [2]: 0.03 µg/mL (≈ 0.0859 µM)
- MIC [3]: 4 µg/mL (≈ 11.5 µM)
- MIC [4]: 4 µg/mL (≈ 11.5 µM)
- MIC [5]: 8 µg/mL (≈ 22.9 µM)
- MIC [6]: 0.5 µg/mL (≈ 1.43 µM)
- MIC [7]: 8 µg/mL (≈ 22.9 µM)
- MIC [8]: 0.5 µg/mL (≈ 1.43 µM)
- MIC [9]: 4 µg/mL (≈ 11.5 µM)
- MIC [10]: 16 µg/mL (≈ 45.8 µM)
- MIC [11]: 0.5 µg/mL (≈ 1.43 µM)
- MIC [12]: 4 µg/mL (≈ 11.5 µM)
- MIC [13]: 16 µg/mL (≈ 45.8 µM)
- MIC [14]: 16 µg/mL (≈ 45.8 µM)
- MIC [15]: 4 µg/mL (≈ 11.5 µM)
- MIC [16]: 0.12 µg/mL (≈ 0.344 µM)
- MIC [17]: 8 µg/mL (≈ 22.9 µM)
- MIC [18]: 0.06 µg/mL (≈ 0.172 µM)
- MIC [19]: 0.5 µg/mL (≈ 1.43 µM)
- MIC [20]: 4 µg/mL (≈ 11.5 µM)
- MIC [21]: 8 µg/mL (≈ 22.9 µM)
- MIC [22]: 16 µg/mL (≈ 45.8 µM)
- MIC [23]: 8 µg/mL (≈ 22.9 µM)
- MIC [24]: 2 µg/mL (≈ 5.73 µM)
- MIC [25]: 16 µg/mL (≈ 45.8 µM)
- MIC [26]: 0.5 µg/mL (≈ 1.43 µM)
- MIC [27]: 2 µg/mL (≈ 5.73 µM)
- MIC [28]: 0.5 µg/mL (≈ 1.43 µM)
- MIC [29]: 16 µg/mL (≈ 45.8 µM)
- MIC [30]: 0.25 µg/mL (≈ 0.716 µM)
- MIC [31]: 2 µg/mL (≈ 5.73 µM)
- MIC [32]: 8 µg/mL (≈ 22.9 µM)
- MIC [33]: 8 µg/mL (≈ 22.9 µM)
- MIC [34]: 0.5 µg/mL (≈ 1.43 µM)
- MIC [35]: 8 µg/mL (≈ 22.9 µM)
- MIC [36]: 2 µg/mL (≈ 5.73 µM)
- MIC [37]: 4 µg/mL (≈ 11.5 µM)
- MIC [38]: 8 µg/mL (≈ 22.9 µM)
- MIC [39]: 4 µg/mL (≈ 11.5 µM)
- MIC [40]: 16 µg/mL (≈ 45.8 µM)
- MIC [41]: 1 µg/mL (≈ 2.86 µM)
- MIC [42]: 1 µg/mL (≈ 2.86 µM)
- MIC [43]: 8 µg/mL (≈ 22.9 µM)
- MIC50 [44]: 2 µg/mL (≈ 5.73 µM)
- MIC90 [44]: 8 µg/mL (≈ 22.9 µM)
- MIC50 [45]: 8 µg/mL (≈ 22.9 µM)
- MIC90 [45]: 16 µg/mL (≈ 45.8 µM)
- MIC [46]: 8 µg/mL (≈ 22.9 µM)
